Data published in PubChem BioAssay AID743059 (The Scripps Research Institute Molecular Screening Center, 2013).
Activity calls are given as the source filed them.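 Rule for the calls: active = EC50 at or below 10 µM; inactive = EC50 above 10 µM.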

Each compound was assayed against Nuclear hormone receptor DAF-12 (Heterodera glycines) (assay: H. glycines DAF-12 receptor agonist potency, dose response, cell-based, luminescence, HEK293 (AID 743059)). Details: HEK293 hgDAF-12 reporter, luciferase luminescence.

| SMILES | EC50 |
| --- | --- |
| O=[N+]([O-])c1cccnc1NCCNc1ncc(C(F)(F)F)cc1Cl | > 67.5 µM (inactive) |
| CCCSc1nsc(NC(=O)CC)n1 | > 67.5 µM (inactive) |
| CN(C)c1ccc(C(C#N)c2ccccc2)nn1 (stereo unspecified) | > 67.5 µM (inactive) |
| CN(C)c1ccc2c(=O)c3ccccc3oc2n1 | > 67.6 µM (inactive) |
| FC(F)(F)c1cc(Cl)c2nc(-c3ccccc3)cn2c1 | > 67.5 µM (inactive) |
| Nc1nc(Nc2ccc(Cl)cc2)nc2ccccc12 | > 67.5 µM (inactive) |
| Cc1cccc(/C(N)=N/OC(=O)c2ccco2)c1 | > 67.6 µM (inactive) |
| Cc1cccc(NC(=O)c2ccc3ccccc3n2)c1C | > 67.5 µM (inactive) |
| OCc1ccc(N=Nc2ccccc2)cc1 | > 67.5 µM (inactive) |
| C/C(=C\C(=O)c1sccc1Cl)N(C)C | > 67.6 µM (inactive) |
| CC1=CN2C(=N)/C(=C/c3ccco3)C(=O)N=C2S1 | > 67.5 µM (inactive) |
| Cc1ccn(-c2cccc(-n3ccc(C)n3)n2)n1 | > 67.6 µM (inactive) |
| COC(=O)c1sc2nc3c(cc2c1N)CCCC3 | > 67.5 µM (inactive) |
| O=c1[nH]cnc2cc(-c3ccccc3)sc12 | > 67.5 µM (inactive) |
| CCc1ccc(C2CC(c3ccco3)=NN2S(C)(=O)=O)cc1 (stereo unspecified) | > 67.5 µM (inactive) |
| CC(C)C[C@H](NC(=O)OCC1c2ccccc2-c2ccccc21)C(=O)O | > 67.5 µM (inactive) |
| Clc1ccc(-c2cn3cc(Cl)ccc3n2)cc1 | > 67.6 µM (inactive) |
| O=C(Nc1ccccc1O)c1ccc(NS(=O)(=O)c2cccc3cccnc23)cc1 | 3.3 µM |
| Nc1ccc(C(=O)Nc2ccccc2N)cc1 | 4.24 µM |

| SMILES | EC50 |
| --- | --- |
| Cc1ccc(OCc2ccc(Br)cc2)c([N+](=O)[O-])n1 | > 67.5 µM (inactive) |
| Cc1nn(-c2nnc(NC3CCCCC3)nn2)c(C)c1Br | > 67.6 µM (inactive) |
| CCCS(=O)(=O)NCc1cn2c(C)csc2n1 | > 67.5 µM (inactive) |
| Fc1ccc(-n2nnc(-c3cccnc3Cl)n2)cc1 | > 67.5 µM (inactive) |
| Cn1c(O)c(N=NC(=O)c2ccco2)c2ccccc21 | > 67.5 µM (inactive) |
| Cc1ccc(SCCN2CCC(C)CCC2=O)cc1 (stereo unspecified) | > 67.5 µM (inactive) |
| Cc1cc2nc(-c3cccnc3SCC(=O)NCc3ccco3)[nH]c2cc1C | > 67.6 µM (inactive) |
| Cc1cnc(NC(=O)COc2ccc3c(c2)CCC3)s1 | > 67.6 µM (inactive) |
| CCOC(=O)c1c(C)[nH]c(N=Nc2cccc(OC)c2)c1C | > 67.5 µM (inactive) |
| C(=N\NC1=Nc2cccc3cccc1c23)/c1ccccc1 | > 67.5 µM (inactive) |
| COCC1CCN(Cc2nc(-c3cccs3)no2)C1 (stereo unspecified) | > 67.5 µM (inactive) |
| Cc1ccc2nc(-c3ccccn3)oc2c1 | > 67.6 µM (inactive) |
| O=C(Nc1ncccc1O)c1ccc(C(=O)c2ccccc2)cc1 | 4.55 µM |
| CC(=Nc1cccc(C)c1)c1sc2ccccc2c1O | > 67.6 µM (inactive) |
| COCCNc1nc(-c2cc3ccccc3o2)cs1 | > 67.5 µM (inactive) |
| COC1=C/C(=C/c2c(N)n3nc(-c4ccc(C)cc4)sc3nc2=O)C=CC1=O | > 67.5 µM (inactive) |
| Cc1ccc(-c2cn3cccnc3n2)cc1 | > 67.6 µM (inactive) |
| CCc1ccc2oc(-c3cccc(N)c3)nc2c1 | > 67.6 µM (inactive) |
| CC1CCC(NC(=O)c2cccn2C)CC1 (stereo unspecified) | > 67.6 µM (inactive) |

| SMILES | EC50 |
| --- | --- |
| O=c1c2ccccc2cnn1-c1ccc2ccccc2c1 | > 67.5 µM (inactive) |
| Cc1ccc2oc(-c3cccc(N)c3)nc2c1 | > 67.6 µM (inactive) |
| Cc1ccc(SCCSc2ncccn2)cc1 | > 67.5 µM (inactive) |
| Cc1ccc(-n2ncc3ccccc3c2=O)cc1Cl | > 67.6 µM (inactive) |
| COCCNC(=O)/C(C#N)=C/c1cc(C)n(C2CCCCC2)c1C | > 67.5 µM (inactive) |
| O=C(CC(=O)c1cccs1)c1ccncc1 | > 67.5 µM (inactive) |
| CN(C)/C=N/C(=S)Nc1ccc(Cl)cc1 | > 67.5 µM (inactive) |
| c1ccc([C@H]2CN3C(=N2)Sc2ccccc23)cc1 | > 67.1 µM (inactive) |
| Cc1ccc(NC(=S)NC(=O)C2CCCC2)c(Br)c1 | > 67.5 µM (inactive) |
| CC(=Nc1ccc(Cl)cc1N)c1c(O)cc(C)oc1=O | > 67.6 µM (inactive) |
| CCc1cc(C(=O)Nc2ncccc2O)sc1C | > 67.5 µM (inactive) |
| c1ccc(CN=C2Nc3ccccc3CS2)nc1 | > 67.5 µM (inactive) |
| CN1C(=O)/C(=C/C=C2\SCCN2C)N(C)C1=S | > 67.6 µM (inactive) |
| Cc1cc(NC(=O)CSc2nc3c(cc2C#N)CCC3)no1 | > 67.6 µM (inactive) |
| CCNC(=S)NNC(=O)c1cc(-c2ccc(OCC)cc2)nc2ccccc12 | > 67.5 µM (inactive) |
| CCN(CC)S(=O)(=O)c1cc(C(=O)OCC(=O)Nc2ccc(-c3nc4ccc(C)cc4s3)cc2)ccc1F | > 67.5 µM (inactive) |
| S=C(c1ccc(-c2ccc(Cl)cc2)o1)N1CCCCC1 | > 67.5 µM (inactive) |
| COc1ccc(Nc2nccc(-c3cccc(N)c3)n2)cc1 | > 67.5 µM (inactive) |
